Assay [1] has as its target T1, BRD4 bromo domain 2 [BRD4(2)] (Homo sapiens, UniProt O60885).
T1 construct: N-terminally His6-tagged BRD4(2) (amino acids 357-445); made in house; host or cells: E. coli
In words: BRD4/acetylated peptide H4 binding assay (TR-FRET), BRD4 bromo domain 2. The note with it: inhibition of BRD4(2)/Ac-H4 peptide interaction. Put shortly:
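IC50 comes from a 4-parameter fit over 0.1 nM–20 μM in duplicate, normalised to DMSO and no-protein controls. TR-FRET (Eu-streptavidin/anti-His-XL665) tracks His-tagged BRD4(2) 357-445 at 100 nM binding Ac-H4 peptide in HEPES pH 7.5 buffer. Incubation was 1 h at 22 °C, then at 4 °C ≥3 h up to overnight.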
For orientation: TR-FRET usually uses a lanthanide donor and a delayed reading to cut background.

In assay [2] the target is T2, BRD4 bromo domain 1 [BRD4(1)] (Homo sapiens, UniProt O60885).
T2 construct: N-terminally His6-tagged BRD4(1) (amino acids 67-152); made in house; host or cells: E. coli
Nature of the assay: BRD4/acetylated peptide H4 binding assay (TR-FRET), BRD4 bromo domain 1. The note with it: inhibition of BRD4(1)/Ac-H4 peptide interaction. Put shortly: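 TR-FRET (665/620 nm ratio) measuring displacement of biotinylated tetra-acetylated H4 peptide from His6-BRD4(1) (aa 67-152, E. coli; typically 10 nM) at pH 7.5. Compound (11 concentrations, 0.1 nM–20 μM, duplicates) was preincubated 10 min at 22°C, then 1 h at 22°C and ≥3 h at 4°C; IC50 from 4-parameter fit normalized to DMSO and no-BRD4 controls.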

The source of these data is patent US20160176867A1, “MODIFIED BET-PROTEIN-INHIBITING DIHYDROQUINOXALINONES AND DIHYDROPYRIDOPYRAZINONES” (BAYER PHARMA AKTIENGESELLSCHAFT, priority 2013, published 2016).

The term IC50 denotes the concentration that inhibits the measured activity by half.

In the case of `C[C@@H]1C(=O)N(C)c2ccc(Nc3cccc(C(=O)NC4CCN(C)CC4)c3)cc2N1C1CCOCC1` [Example 109, 3-{[(3R)-1,3-dimethyl-2-oxo-4-(tetrahydro-2H-pyran-4-yl)-1,2,3,4-tetrahydroquinoxalin-6-yl]amino}-N-(1-methylpiperidin-4-yl)benzamide], the half-inhibitory concentration (IC50) in assay [1] is 1120 nM; in assay [2], 521 nM.

With `CC1C(=O)N(C)c2ccc(N(C)c3cccc(S(=O)(=O)N(C)C)c3)cc2N1Cc1ccccc1` (centres unmarked) [Example 110, 3-[(4-benzyl-1,3-dimethyl-2-oxo-1,2,3,4-tetrahydroquinoxalin-6-yl)(methyl)amino]-N,N-dimethylbenzenesulphon-amide], the IC50 in assay [1] was found to be 320 nM; in assay [2], 1290 nM.

Take `C[C@@H]1C(=O)N(C)c2ccc(Nc3cccc(S(=O)(=O)NCCN(C)C)c3)nc2N1C1CCNCC1` [Example 128, N-[2-(dimethylamino)ethyl]-3-{[(3R)-1,3-dimethyl-2-oxo-4-(piperidin-4-yl)-1,2,3,4-tetrahydropyrido[2,3-b]pyrazin-6-yl]amino}-benzenesulphonamide]: the half-maximal inhibitory concentration (IC50) in assay [1] was found to be 137 nM; in assay [2], 66 nM.

`C[C@@H]1C(=O)N(C)c2ccc(Nc3cccc(C(=O)N4CCN(C)CC4)c3)nc2N1C1CCNCC1` [Example 130, (3R)-1,3-dimethyl-6-({3-[(4-methylpiperazin-1-yl)carbonyl]phenyl}amino)-4-(piperidin-4-yl)-3,4-dihydropyrido[2,3-b]pyrazin-2(1H)-one]: the half-maximal inhibitory concentration (IC50) in assay [1] came out at 178 nM; in assay [2], 206 nM.
